According to publication PMC10077444, “Evaluation of In Vivo Biological Activity Profiles of Isoindole-1,3-dione Derivatives: Cytotoxicity, Toxicology, and Histopathology Studies” (ACS Omega, 2023):
Several values for one entry are separate records, joined by “and”; a condition that tells them apart may be missing. Identical values can stand only once. Entries after “also recorded” stand apart in the source; their conditions may differ.

Tests used:
CD1 mice = experiment: Acute toxicity study; assay type: in vivo; settings: 200 μM, 100 μL intravenously once, 2 females and 2 males, 14 days
[1] = Weight and survival of tumor-bearing nude mice during and after treatment; assay type: in vivo; settings: for weight of nude mice: individual mice (1)-(5); for survival of tumor-bearing nude mice: five mice per group, observed for 60 days
Procedure: Male atypical nude mice, 6–8 weeks old, were used for in vivo xenograft tumor models. […] For the purpose of xenograft administration, nude mice were injected subcutaneously with 100 μL of 5 × 10^6 A549-Luc cell suspension. The presence of cancer after cell administration to nude mice was followed by imaging with an IVIS device. In order to monitor tumor formation and tumor volume detection, luciferin [Biovision Inc., USA; 12 mg/mL in phosphate-buffered saline (PBS)] was injected intraperitoneally followed by visualization with IVIS 5 min later. When tumor volume reaches about 2000 mm^3, cancerous nudes are divided into three groups: the control group, 3 group, and 4 group. Grouping was made as 3–5 animals in each group. The following procedures were prepared according to the groups, and then they were implemented. In addition, the weights of nude mice were regularly checked and recorded.
Male atypical nude mice aged 6–8 weeks are commonly used in in vivo xenograft tumor models. A549-luc lung cancer cells were injected into nude mice in all three groups, and tumor growth was induced with a xenograft model. For xenograft administration, 100 μL of 5 × 10^6 A549-luc cell suspension was injected subcutaneously into nude mice. After cell application to nude mice, it was determined whether there was cancer or not by imaging with the IVIS device. After the cancer groups were formed, the treatment phase was started. […] Each prepared sample was given to the animals by tail vein administration, three doses (as described in Section 2.3) per week, and the IVIS images taken at 5 min after luciferin (200 μL of 12 mg/mL stock administered subcutaneously) at certain time intervals were evaluated.

HeLa cell lines = tested on: HeLa cell lines; design: method as in PMID 31759659; settings: 48 h; cited from earlier work
[2] = 28 day subacute toxicity study, blood biochemical parameters; settings: for ALB / ALT / AST / TBIL: 200 μM group, 100 μL i.v. 3 times a week for 4 weeks, blood
A549 cell lines = experiment: MTT proliferation assay, A549 cells; assay type: cell-based; settings: Homo sapiens, A549 (A549-Luc) cells
Procedure: The A549 (human lung carcinoma) cell line was grown in a Dulbecco’s Modified Eagle Medium (DMEM) containing 10% fetal bovine serum (FBS) and 100 units/mL penicillin–100 μg/mL streptomycin and 2 mM L-glutamine for cytotoxicity experiments. Cells were maintained at 37 °C temperature conditions containing 5% CO2. When the cells covered 95–98% of the flask, they were passaged.
The 3-(4,5-dimethylthiazol-2-yl)-2,5-diphenyltetrazolium bromide (MTT) proliferation assay was performed to evaluate the cytotoxicity of the 3 and 4 compounds. Cells were seeded at a density of 5 × 10^4 cells/cm^2 and incubated at 37 °C in 95% air, 5% CO2 environments for 24 h. Substances 3 and 4 were first dissolved in DMSO, then dilutions were prepared by dispersing them in the DMEM cell growth medium. The dose intervals of substances 3 and 4 were prepared as 400, 200, 100, 50, and 25 μM. The dose intervals of substances 3 and 4 were placed on a 24-well cell culture plate and then incubated for 24 h. After incubation, the medium was removed and replaced with the MTT-containing medium. Plates were incubated for an additional 4 h at 37 °C. MTT medium was removed, and 100 μL of DMSO was added to dissolve the formazan crystals. The absorbance was determined using a plate reader at a wavelength of 540 nm. IC50 values for 24, 48, and 72 h were calculated using GraphPad Prism5 software (GraphPad, San Diego, CA).
Our group recently determined that isoindole-1,3-dione derivatives are potential tyrosine kinase enzyme inhibitors and have antiproliferative effects against some cell lines according to MTT test results. It has been confirmed that the antiproliferative effects vary according to the nitrogen (N) atom and the groups attached to the ring. In addition, some compounds are known to exert cytotoxic effects against more than one cell line. […] Benzyl derivatives of isoindole-1,3-dione 3 and 4 were synthesized according to the method used in our previous work.[9] First, the cytotoxic effects of both compounds against A549-Luc cells were examined. IC50 values of those drugs were calculated using the MTT activity assay. Cell viability of A549-Luc cells using two compounds was followed for 24, 48, and 72 h of incubation time. According to the results of these experiments, the optimum incubation period was determined as 48 h.

[3] = 3 days, 200 μM, 20 μL tail vein, three doses a week, in g (unit assumed)
[4] = 7 days, 200 μM, 20 μL tail vein, three doses a week, in g (unit assumed)
[5] = 10 days, 200 μM, 20 μL tail vein, three doses a week, in g (unit assumed)
[6] = 15 days, 200 μM, 20 μL tail vein, three doses a week, in g (unit assumed)
[7] = 200 μM, 20 μL tail vein, three doses a week
[8] = initially, 200 μM in DMSO, 20 μL tail vein, three doses a week, in g (unit assumed)

Structure (SMILES)	abnormalities in the behavior of the mice (CD1 mice)	weight of nude mice [1, 3]	weight of nude mice [1, 4]	weight of nude mice [1, 5]	weight of nude mice [1, 6]	survival of tumor-bearing nude mice [1, 7]	weight of nude mice [1, 8]	IC50 (HeLa cell lines) [µM]	ALB [2]	ALT [2]	AST [2]	TBIL [2]	IC50 (A549 cell lines; 24 h) [µM]	IC50 (A549 cell lines; 48 h) [µM]	IC50 (A549 cell lines; 72 h) [µM]	other results
CC(=O)O[C@H]1C=C[C@H](OC(C)=O)[C@H]2C(=O)N(Cc3ccccc3)C(=O)[C@H]21 [compound 3]	no abnormalities	26.25 and 24.90 and 23.54 and 27.20	28.50 and 25.42 and 24.87 and 29.26 and 30.77	28.52 and 25.98 and 25.89 and 30.26 and 32.07	31.02 and 28.50 and 26.43 and 32.30 and 33.71	did not die; also recorded: survived for 60 days	23.58 and 24.10 and 22.14 and 22.18 and 24.24	149	2.34 ± 0.05	60.5 ± 6.36	114 ± 9.90	0.02 ± 0.01	266	114	68.8	weight of nude mice ([1]; 20 days, Ex = dead, in g (unit assumed)): 32.60 and 30.60 and 28.70 and 33.78 and 36.05; weight of nude mice ([1]; 30 days, Ex = dead, in g (unit assumed)): 30.90 and 29.40 and 32.96 and 34.86; weight of nude mice ([1]; 40 days, treatment discontinued on day 30, Ex = dead, in g (unit assumed)): 30.81 and 31.30 and 30.31 and 32.30 and 34.31; weight of nude mice ([1]; 50 days, treatment discontinued on day 30, Ex = dead, in g (unit assumed)): 30.91 and 33.40 and 31.25 and 33.12 and 34.65; weight of nude mice ([1]; 60 days, treatment discontinued on day 30, Ex = dead, in g (unit assumed)): 32.39 and 34.65 and 32.60 and 33.37 and 35.95; increase of AST level compared with the control group ([2]; 1st dose (200 μM) groups): more than the increase related to 4
CC(=O)O[C@@H]1[C@@H]2C(=O)N(Cc3ccccc3)C(=O)[C@@H]2C=C[C@H]1Cl [compound 4]	no abnormalities	29.17 and 26.62 and 29.35 and 24.80 and 28.90	33.10 and 30.76 and 32.46 and 25.32 and 30.89	31.71 and 30.85 and 31.40 and 27.13 and 31.24	35.20 and 32.46 and 31.25 and 28.34 and 32.30	became Ex after 15 days; also recorded: found Ex in their cages after the 3rd dose; also recorded: four nude mice were dead; also recorded: showed Ex after the third dose	24.57 and 22.94 and 24.50 and 23.01 and 24.01	141	2.63 ± 0.07	57.5 ± 0.71	94.5 ± 3.54	0.03 ± 0.03	349	116	83.6	weight of nude mice ([1]; 20 days, Ex = dead): 37.08 and Ex; weight of nude mice ([1]; 30 days, Ex = dead): 35.54 and Ex; weight of nude mice ([1]; 40 days, treatment discontinued on day 30, Ex = dead): 34.30 and Ex; weight of nude mice ([1]; 50 days, treatment discontinued on day 30, Ex = dead): 30.41 and Ex; weight of nude mice ([1]; 60 days, treatment discontinued on day 30, Ex = dead): 32.95 and Ex
